Reference: patent US20140357512A1, “HISTONE DEACETYLASE (HDAC) BIOMARKERS IN MULTIPLE MYELOMA” (priority 2013, published 2014)

Tested on: human myeloma cell line MM.1S
Test: SILAC acetylated-lysine peptide profiling, HDAC inhibitor vs DMSO (light/heavy ratio)
Format: cell-based
Source text: An embodiment of the invention comprises utilizing the SILAC method in order to quantitate changes in protein expression between two or more populations of cells. The SILAC method is a technique based on mass spectrometry that detects differences in protein abundance among samples using non-radioactive isotopic labeling. The SILAC method is known in the art, and described in detail in Ong et al., “Stable Isotope Labeling by Amino Acids in Cell Culture, SILAC, as a Simple and Accurate Approach to Expression Proteomics”, Molecular & Cellular Proteomics, vol. 1, pp. 376-386 (2002), which is incorporated herein by reference in its entirety.
Briefly, the SILAC method involves growing two populations of cells in cell culture. The first population of cells is grown in growth media containing normal amino acids (“normal media”). The second population of cells is grown in media lacking a standard essential amino acid (such as lysine), but is then supplemented with a non-radioactive, isotopically labeled form of that essential amino acid (such as lysine labeled with ^13C atoms, rather than normal ^12C atoms), which is called “heavy media”. When the two populations of cells are each growing in the medium, they incorporate the amino acids into all of their proteins. The growth of cells maintained in the heavy media is no different from that in normal media. All peptides containing the heavy amino acids are heavier than their normal counterparts. The cells from each of the two populations of cells are lysed. The lysates from each of the two cell populations are then combined. The combined cell lysates are then analyzed by mass spectrometry. Pairs of chemically identical peptides of different stable isotope composition can be differentiated in a mass spectrometer due to their difference in mass. The ratio of peak intensities in the mass spectrum for such peptide pairs reflects the abundance ratio for the two proteins.
This example describes SILAC studies that were performed to compare the effects of three different HDAC inhibitors (Compound A, Compound B, and tubastatin A) to a control on a human multiple myeloma cell line. The HDAC inhibitors were also compared amongst themselves to determine differences in their effects.
A human myeloma cell line MM.1S was grown using either ^12C (light) or ^13C (heavy) lysine containing culture medium. The “heavy” cells were treated with DMSO as the control, and the “light” cells were treated with a single HDAC inhibitor at 37° C. for 6 hours. The heavy and light cells were lysed, and the lysates were mixed in 1:1 ratio and digested with the protease trypsin. The acetylated lysine containing peptides (due to the action of the HDAC inhibitor) in the digested peptide pool were captured by a non-specific anti-acetylated lysine antibody cocktail (the antibodies identify both light and heavy acetylated peptides), and subjected to mass spectrometry analysis in order to identify thousands of individual peptides.
Thousands of peptides were identified in pairs (^12C and ^13C) due to their known mass differences. The amino acid sequence and quantitative ratio (Light/Heavy) of a given peptide in two differentially treated cell lysates were then determined and annotated with their possible protein (gene) sources.
As stated above, three HDAC inhibitors (Compound A, Compound B, and Tubastatin A) were used. Thus, the SILAC method was performed three times, with a different HDAC inhibitor compared to a control each time. Accordingly, there are three pairs of quantitative data in the table below, i.e., Compound A:DMSO, Compound B:DMSO, and Tubastatin A:DMSO. A cut-off of 1.30 fold of change (increase or decrease) was then used to determine “changed” or “+” in the table, and any peptides with a fold of change less than 1.3 fold were determined to be “unchanged” or “0” in the table. Those peptides that were not identified were marked as “NA” in the table. […]

CN1CCc2c(c3ccccc3n2Cc2ccc(C(=O)NO)cc2)C1 [Tub A]
light to heavy ratio (L/H ratio) of acetylated peptide, log 2 scale (NIDPK(ac)PCTPR (SEQ ID NO: 148), Isoform 1 of DAZ-associated protein 1 [83], DAZAP1): 0.80 | L/H ratio of acetylated peptide (NK(ac)WFFQK (SEQ ID NO: 498), 60S ribosomal protein L27 [128], RPL27): 0.00 log 2 | light to heavy ratio (L/H ratio) of acetylated peptide, log 2 scale (NKEEAAEYAK(ac)LLAK (SEQ ID NO: 214), 40S ribosomal protein S6 [211], RPS6): 0.53 | light to heavy ratio (L/H ratio) of acetylated peptide, log 2 scale (NLDK(ac)EYLPIGGLAEFCK (SEQ ID NO: 159), Aspartate aminotransferase mitochondrial [94], GOT2): −0.46 | L/H ratio of acetylated peptide ADKDYHFK(ac)VDNDENEHQLSLR (SEQ ID NO: 61) (NPM1 [32], log 2 scale, drug vs DMSO): −0.64 | L/H ratio of acetylated peptide FINYVK(ac)NCFR (SEQ ID NO: 62) (NPM1 [244], log 2 scale, drug vs DMSO): −0.52 | light to heavy ratio (L/H ratio) of acetylated peptide, log 2 scale (NTILK(ac)AYDGR (SEQ ID NO: 177), Isocitrate dehydrogenase [NADP] mitochondrial [256], IDH2): −0.49 | L/H ratio of acetylated peptide GVTQFGNK(ac)YIQQTKPLTLER (SEQ ID NO: 18) (NUDT21 [23], log 2 scale, drug vs DMSO): 0.50 | light to heavy ratio (L/H ratio) of acetylated peptide, log 2 scale (NVESYTK(ac)LGNPTR (SEQ ID NO: 210), Dolichyl-diphosphooligosaccharide--protein glycosyltransferase subunit 1 precursor [226], RPN1): −0.88 | light to heavy ratio (L/H ratio) of acetylated peptide, log 2 scale (NVTLPAVFK(ac)APIRPDIVNFVHTNLR (SEQ ID NO: 205), 60S ribosomal protein L4 [29], RPL4): −0.48 | L/H ratio of acetylated peptide (NVYK(ac)FELDTSER (SEQ ID NO: 444), Dolichyl-diphosphooligosaccharide--protein glycosyltransferase subunit 2 [460], RPN2): 0.00 log 2 | light to heavy ratio (L/H ratio) of acetylated peptide, log 2 scale (NYEHLFK(ac)VNDK (SEQ ID NO: 192), Mitochondrial import inner membrane translocase subunit TIM16 [82], PAM16): 1.00 | light to heavy ratio (L/H ratio) of acetylated peptide FCLSK(ac)PGVYK (SEQ ID NO: 345) (Nodal modulator 1 [630], NOMO3, NOMO1, drug:DMSO): 0.00 log 2 | L/H ratio of acetylated peptide SGVGNVFIK(ac)NLDK (SEQ ID NO: 63) (PABPC4 [104], log 2 scale, drug vs DMSO): −0.54 | L/H ratio of acetylated peptide YGVSGYPTLK(ac)IFR (SEQ ID NO: 66) (PDIA3 [104], log 2 scale, drug vs DMSO): −0.60 | L/H ratio of acetylated peptide PSHLTNK(ac)FEDK (SEQ ID NO: 65) (PDIA3 [214], log 2 scale, drug vs DMSO): −0.63 | L/H ratio of acetylated peptide GEK(ac)FVMQEEFSR (SEQ ID NO: 64) (PDIA3 [335], log 2 scale, drug vs DMSO): −0.58 | light to heavy ratio (L/H ratio) of acetylated peptide, log 2 scale (PGGPALWGDAFK(ac)R (SEQ ID NO: 189), Protein NipSnap homolog 3A [166], NIPSNAP3A): 0.77 | L/H ratio of acetylated peptide SLLGK(ac)DVLFLK (SEQ ID NO: 67) (PGK1 [91], log 2 scale, drug vs DMSO): 0.38 | L/H ratio of acetylated peptide SIYGEK(ac)FEDENFILK (SEQ ID NO: 68) (PPIA [82], log 2 scale, drug vs DMSO): −0.67 | L/H ratio of acetylated peptide VIFGLFGK(ac)TVPK (SEQ ID NO: 70) (PPIB [67], log 2 scale, drug vs DMSO): −0.44 | L/H ratio of acetylated peptide TVPK(ac)TVDNFVALATGEK (SEQ ID NO: 69) (PPIB [71], log 2 scale, drug vs DMSO): −0.49 | L/H ratio of acetylated peptide VIK(ac)[…] (SEQ ID NO: 71) (PPIB [98], log 2 scale, drug vs DMSO): −0.40 | L/H ratio of acetylated peptide IYGFYDECK(ac)R (SEQ ID NO: 72) (PPP1CC [141], log 2 scale, drug vs DMSO): −0.43 | light to heavy ratio (L/H ratio) of acetylated peptide TAWLDGK(ac)HVVFGK (SEQ ID NO: 592) (Peptidyl-prolyl cis-trans isomerase B [165], gene PPIB, inhibitor:DMSO): 0.00 log 2 | light to heavy ratio (L/H ratio) of acetylated peptide FPDENFK(ac)LK (SEQ ID NO: 347) (Peptidyl-prolyl cis-trans isomerase C [123], PPIC, drug:DMSO): 0.00 log 2 | light to heavy ratio (L/H ratio) of acetylated peptide (ac)AAK(ac)VFESIGK (SEQ ID NO: 277) (Prohibitin [4], PHB, drug:DMSO): 0.39 log 2 | light to heavy ratio (L/H ratio) of acetylated peptide FVVEK(ac)AEQQK (SEQ ID NO: 263) (Prohibitin [202], PHB, drug:DMSO): 0.62 log 2 | light to heavy ratio (L/H ratio) of acetylated peptide GYPTIK(ac)FFR (SEQ ID NO: 541) (Protein disulfide-isomerase [103], gene P4HB, inhibitor:DMSO): 0.00 log 2 | light to heavy ratio (L/H ratio) of acetylated peptide THILLFLPK(ac)SVSDYDGK (SEQ ID NO: 297) (Protein disulfide-isomerase [263], P4HB, drug:DMSO): −0.45 log 2 | light to heavy ratio (L/H ratio) of acetylated peptide SGLLDK(ac)WK (SEQ ID NO: 602) (Signal peptidase complex subunit 2 [38], gene LOC653566, SPCS2, inhibitor:DMSO): 0.00 log 2 | light to heavy ratio (L/H ratio) of acetylated peptide (ac)AEYLASIFGTEK(ac)DK (SEQ ID NO: 283) (Splicing factor U2AF 35 kDa subunit [13], U2AF1, drug:DMSO): 0.60 log 2 | light to heavy ratio (L/H ratio) of acetylated peptide YDDPEVQK(ac)DIK (SEQ ID NO: 578) (Stress-70 protein mitochondrial [135], gene HSPA9, inhibitor:DMSO): 0.00 log 2 | light to heavy ratio (L/H ratio) of acetylated peptide, log 2 scale (TAMK(ac)YNLGLDLR (SEQ ID NO: 158), Glutamate dehydrogenase 1 mitochondrial [527], GLUD1): 0.48 | light to heavy ratio (L/H ratio) of acetylated peptide, log 2 scale (TLNDELEIIEGMK(ac)FDR (SEQ ID NO: 175), 60 kDa heat shock protein mitochondrial [218], HSPD1): −0.45 | light to heavy ratio (L/H ratio) of acetylated peptide, log 2 scale (TPELNLDQFHDK(ac)TPYTIMFGPDK (SEQ ID NO: 139), cDNA FLJ55574 highly similar to Calnexin [217], CANX): −0.48 | light to heavy ratio (L/H ratio) of acetylated peptide, log 2 scale (TPVIVTLK(ac)ENER (SEQ ID NO: 176), Hypoxia up-regulated protein 1 [75], HYOU1): −0.54 | L/H ratio of acetylated peptide INVYYNEATGGK(ac)YVPR (SEQ ID NO: 109) (TUBB2C [58], log 2 scale, drug vs DMSO): −0.43 | L/H ratio of acetylated peptide ILAEGGGAK(ac)FK (SEQ ID NO: 110) (TUFM [91], log 2 scale, drug vs DMSO): −0.61 | L/H ratio of acetylated peptide QIESK(ac)TAFQEALDAAGDK (SEQ ID NO: 111) (TXN [8], log 2 scale, drug vs DMSO): −0.70 | L/H ratio of acetylated peptide VYVAK(ac)VDCTAHSDVCSAQGVR (SEQ ID NO: 113) (TXNDC5, MUTED, MUTED-TXNDC5 [118], log 2 scale, drug vs DMSO): −0.49 | L/H ratio of acetylated peptide LFKPGQEAVK(ac)YQGPR (SEQ ID NO: 112) (TXNDC5, MUTED, MUTED-TXNDC5 [150], log 2 scale, drug vs DMSO): −0.47 | light to heavy ratio (L/H ratio) of acetylated peptide, log 2 scale (TYGEIFEK(ac)FHPIR (SEQ ID NO: 188), NADH dehydrogenase [ubiquinone] 1 subunit C2 [114], NDUFC2): 1.00 | light to heavy ratio (L/H ratio) of acetylated peptide NICSK(ac)YSVR (SEQ ID NO: 256) (Thioredoxin domain-containing protein 5 [390], TXNDC5, MUTED, MUTED-TXNDC5, drug:DMSO): −0.51 log 2
